Results taken from US12414935B2, “Compounds and methods for the treatment of parasitic diseases” (WASHINGTON UNIVERSITY, priority 2019, dated 2025).

Assays:
[1] = tested on: C. parvum; experiment: C. parvum in vitro EC50 assay in ALI culture; format: cell-based; details: Cryptosporidium parvum, 48 hr, Mean +/- S.D., N = 2, 5 pt curve
Procedure: (§1) In vitro assays measuring the EC50 value for C. parvum infection may be run to determine the efficacy of the compounds. For example, human ileocecal adenocarcinoma (HCT-8) cells can be obtained from ATCC and maintained in T-75 tissue culture flasks with RPMI 1640 medium with HEPES, sodium pyruvate (1 mM), and L-glutamine (ATCC) supplemented with 10% horse serum (ATCC) and 120 U/ml penicillin and 120 μg/ml streptomycin. Cells can be plated into 384-well, tissue culture-treated, black-walled, clearbottom microwell plates (BD Falcon) at a density of 8,850 cells/well and allowed to grow to confluence. The cells may then be inoculated with 5.5×10^3 primed C. parvum oocysts (Bunchgrass Farms, Deary, ID) suspended in inoculation medium (RPMI 1640 without horse serum). Oocysts may be primed for excystation by following a previously described protocol (J. Eukaryot. Microbiol. 46:56S-57S). Briefly, oocysts can be treated for 10 min with 10 mM HCl at 37° C., centrifuged, and treated with a 2 mM solution of sodium taurocholate (Sigma-Aldrich) in phosphate-buffered saline (PBS) with Ca^2+ and Mg^2+. The suspension can be incubated for 10 min at 16° C. and then diluted in inoculation medium and added to each well. Infected cells are incubated at 37° C. for 3 h, at which point an equal volume of growth medium containing 20% horse serum (total serum concentration of 10%) is produced. Compounds are diluted and assayed at fixed doses (e.g., 0.12, 0.37, 1.1, 3.3, and 10 μM, with each concentration, n=14) for the generation of EC50 curves. In the case of final EC50 curves, three wells are left uninfected but treated with each of the corresponding concentrations of the compound to assess for background staining. All curves are generated using the log[inhibitor] versus response variable slope equation in GraphPad Prism, with the bottom constraint set equal to 0.
(§2) Such assays were prepared on HTC-8 cells and ALI. Table 2 illustrates measured EC50 at various time points.
Briefly, i3T3 cells were plated in CM media. Spheroids were plated on the cells. […]

[2] = tested on: C. parvum; experiment: C. parvum in vitro EC50 assay in HCT-8 cells; format: cell-based; details: Cryptosporidium parvum, HCT8 cells, 24 hr, Mean +/- S.D., N = 3, 9 pt curve
Procedure: as §1, §2

Row | Compound | EC50 [1] [nM] | EC50 [2] [nM]
1 | COc1ccc(NC(=O)N2CCCCN3[C@H](CN(C)S(C)(=O)=O)[C@H](c4ccc(C#Cc5ccccc5)cc4)[C@@H]3C2)cc1 [Compound 1, (8R,9R,10S)-N-(4-methoxyphenyl)-10-((N-methylmethylsulfonamido)methyl)-9-(4-(phenylethynyl)phenyl)-1,6-diazabicyclo[6.2.0]decane-6-carboxamide] | 28 ± 2 | 11 ± 3
2 | COc1ccc(NC(=O)N2CCCCN3[C@H](CN(C)C)[C@H](c4ccc(C#Cc5ccccc5)cc4)[C@@H]3C2)cc1 [Compound 2, (8R,9S,10S)-10-((dimethylamino)methyl)-N-(4-methoxyphenyl)-9-(4-(phenylethynyl)phenyl)-1,6-diazabicyclo[6.2.0]decane-6-carboxamide] | 113 ± 15 | 33 ± 9
3 | CC(=O)Oc1ccccc1C(=O)Nc1ncc([N+](=O)[O-])s1 [Nitazoxanide, reference compound] | 25900 ± 4140 | 2190 ± 378
